# Reference: patent publication US10227323B2, “Glucosylceramide synthase inhibitors for the treatment of diseases” (BIOMARIN PHARMACEUTICAL INC., priority 2013, dated 2019)
# Target: T1, GCS (Canis lupus familiaris, UniProt A0A8I3MXG6)
# T1 sequence (A0A8I3MXG6 1-394): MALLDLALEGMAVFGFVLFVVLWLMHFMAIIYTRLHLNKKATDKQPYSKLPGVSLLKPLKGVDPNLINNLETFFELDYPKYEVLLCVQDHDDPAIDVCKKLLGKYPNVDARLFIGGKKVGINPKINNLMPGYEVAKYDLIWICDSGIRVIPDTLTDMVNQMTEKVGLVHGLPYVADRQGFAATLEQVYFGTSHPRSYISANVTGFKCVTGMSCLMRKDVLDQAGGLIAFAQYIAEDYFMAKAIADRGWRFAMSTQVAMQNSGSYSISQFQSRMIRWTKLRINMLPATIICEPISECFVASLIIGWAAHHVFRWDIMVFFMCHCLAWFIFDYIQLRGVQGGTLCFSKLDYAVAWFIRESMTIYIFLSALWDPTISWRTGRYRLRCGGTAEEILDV
# Assay: Assay 1: GCS Enzymatic Assay (MDCK cell lysate, C6-NBD-Ceramide, LC/MS)
# Type: biochemical, canine
# Conditions: Table 2; for IC50: data without asterisk, read-out: IC50 (nM) generated from Assay 1; for % inhibition generated from Assay 1: data marked by *
# Procedure, shortened: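 LC/MS/MS measurement of glucosylceramide and NBD-ceramide after a 1 h, 37 °C reaction with 100 μM UDP-glucose and 10 μM C6-NBD-ceramide gave IC50s or percent inhibition.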
SMILES,IC50 [nM],% inhibition generated from Assay 1
"O=C(N[C@H](CN1CCCC1)[C@H](O)c1cc(F)c2c(c1)OCCO2)C(F)(F)c1ccc(-c2ccc(F)cc2)cc1 [Compound 140, 2,2-difluoro-N-((1R,2R)-1-(8-fluoro-2,3-dihydrobenzo[b][1,4]dioxin-6-yl)-1-hydroxy-3-(pyrrolidin-1-yl)propan-2-yl)-2-(4′-fluoro-[1,1′-biphenyl]-4-yl)acetamide]",< 50,
"O=C(N[C@H](CN1CCC1)[C@H](O)c1cc(F)c2c(c1)OCCO2)/C(CCc1ccc2ccccc2c1)=N/O [Compound 141, (E)-N-((1R,2R)-3-(azetidin-1-yl)-1-(8-fluoro-2,3-dihydrobenzo[b][1,4]dioxin-6-yl)-1-hydroxypropan-2-yl)-2-(hydroxyimino)-4-(naphthalen-2-yl)butanamide]",< 50,
"O=C(N[C@H](CN1CCCC1)[C@H](O)c1ccc(OC2CC2)c(Cl)c1)/C(CCc1ccc2ccccc2c1)=N/O [Compound 142, (E)-N-((1R,2R)-1-(3-chloro-4-cyclopropoxyphenyl)-1-hydroxy-3-(pyrrolidin-1-yl)propan-2-yl)-2-(hydroxyimino)-4-(naphthalen-2-yl)butanamide]",< 50,
"O=C(CCc1ccc2ccccc2c1)C(=O)N[C@H](CN1CCCC1)[C@H](O)c1cc(F)c2c(c1)OCCO2 [Compound 143, N-((1R,2R)-1-(8-fluoro-2,3-dihydrobenzo[b][1,4]dioxin-6-yl)-1-hydroxy-3-(pyrrolidin-1-yl)propan-2-yl)-4-(naphthalen-2-yl)-2-oxobutanamide]",< 50,
"O=C(N[C@H](CN1CCC1)[C@H](O)c1ccc2c(c1)OCCO2)C(F)(F)CCc1ccc2ccccc2c1 [Compound 144, N-((1R,2R)-3-(azetidin-1-yl)-1-(2,3-dihydrobenzo[b][1,4]dioxin-6-yl)-1-hydroxypropan-2-yl)-2,2-difluoro-4-(naphthalen-2-yl)butanamide]",< 50,
"O=C(CCc1ccc2ccccc2c1)C(=O)N[C@H](CN1CCC1)[C@H](O)c1cc(F)c2c(c1)OCCO2 [Compound 145, N-((1R,2R)-3-(azetidin-1-yl)-1-(8-fluoro-2,3-dihydrobenzo[b][1,4]dioxin-6-yl)-1-hydroxypropan-2-yl)-4-(naphthalen-2-yl)-2-oxobutanamide]",,A* (the compound had a % inhibition of a percent inhibition of greater than or equal to about 50%)
"O=C(N[C@H](CN1CCCC1)[C@H](O)c1ccc(OC2CCOCC2)c(Cl)c1)C(F)(F)c1ccc2cc(Cl)ccc2c1 [Compound 146, N-((1R,2R)-1-(3-chloro-4-((tetrahydro-2H-pyran-4-yl)oxy)phenyl)-1-hydroxy-3-(pyrrolidin-1-yl)propan-2-yl)-2-(6-chloronaphthalen-2-yl)-2,2-difluoroacetamide]",< 50,
"O=C(CCc1ccc2ccccc2c1)C(=O)N[C@H](CN1CCCC1)[C@H](O)c1ccc(OC2CC2)c(Cl)c1 [Compound 147, N-((1R,2R)-1-(3-chloro-4-cyclopropoxyphenyl)-1-hydroxy-3-(pyrrolidin-1-yl)propan-2-yl)-4-(naphthalen-2-yl)-2-oxobutanamide]",,A* (the compound had a % inhibition of a percent inhibition of greater than or equal to about 50%)
"O=C(N[C@H](CN1CCCC1)[C@H](O)c1cc(F)c2c(c1)OCCO2)/C(CCc1ccc2ccccc2c1)=N/O [Compound 148, (E)-N-((1R,2R)-1-(8-fluoro-2,3-dihydrobenzo[b][1,4]dioxin-6-yl)-1-hydroxy-3-(pyrrolidin-1-yl)propan-2-yl)-2-(hydroxyimino)-4-(naphthalen-2-yl)butanamide]",< 50,
"O=C(N[C@H](CN1CCCC1)[C@H](O)c1ccc(OC2CC2)c(Cl)c1)C(=O)c1ccc(-c2ccc(F)cc2)cc1 [Compound 149, N-((1R,2R)-1-(3-chloro-4-cyclopropoxyphenyl)-1-hydroxy-3-(pyrrolidin-1-yl)propan-2-yl)-2-(4′-fluoro-[1,1′-biphenyl]-4-yl)-2-oxoacetamide]",< 50,
"O=C(N[C@H](CN1CCC1)[C@H](O)c1cc(F)c2c(c1)OCCO2)C(=O)c1ccc(-c2ccc(F)cc2)cc1 [Compound 150, N-((1R,2R)-3-(azetidin-1-yl)-1-(8-fluoro-2,3-dihydrobenzo[b][1,4]dioxin-6-yl)-1-hydroxypropan-2-yl)-2-(4′-fluoro-[1,1′-biphenyl]-4-yl)-2-oxoacetamide]",< 50,
"O=C(CCc1ccc2cc(F)ccc2c1)C(=O)N[C@H](CN1CCC1)[C@H](O)c1ccc(OC2CC2)c(Cl)c1 [Compound 154, N-((1R,2R)-3-(azetidin-1-yl)-1-(3-chloro-4-cyclopropoxyphenyl)-1-hydroxypropan-2-yl)-4-(6-fluoronaphthalen-2-yl)-2-oxobutanamide]",,B* (the compound had a % inhibition of greater than or equal to about 3% but less than about 50%)
"O=C(N[C@H](CN1CCC1)[C@H](O)c1ccc(OC2CC2)c(Cl)c1)C(F)(F)c1ccc(-c2ccc(F)cc2)cc1 [Compound 162, N-((1R,2R)-3-(azetidin-1-yl)-1-(3-chloro-4-cyclopropoxyphenyl)-1-hydroxypropan-2-yl)-2,2-difluoro-2-(4′-fluoro-[1,1′-biphenyl]-4-yl)acetamide]",,A* (the compound had a % inhibition of a percent inhibition of greater than or equal to about 50%)

# Continued, in another order:
IC50 [nM],SMILES,% inhibition generated from Assay 1
< 50,"O=C(N[C@H](CN1CCCC1)[C@H](O)c1cc(F)c2c(c1)OCCO2)C(=O)c1ccc2cc(Cl)ccc2c1 [Compound 151, 2-(6-chloronaphthalen-2-yl)-N-((1R,2R)-1-(8-fluoro-2,3-dihydrobenzo[b][1,4]dioxin-6-yl)-1-hydroxy-3-(pyrrolidin-1-yl)propan-2-yl)-2-oxoacetamide]",
< 50,"O=C(N[C@H](CN1CCCC1)[C@H](O)c1ccc(OC2CCOCC2)c(Cl)c1)C(=O)c1ccc(-c2ccc(F)cc2)cc1 [Compound 152, N-((1R,2R)-1-(3-chloro-4-((tetrahydro-2H-pyran-4-yl)oxy)phenyl)-1-hydroxy-3-(pyrrolidin-1-yl)propan-2-yl)-2-(4′-fluoro-[1,1′-biphenyl]-4-yl)-2-oxoacetamide]",
< 50,"O=C(N[C@H](CN1CCCC1)[C@H](O)c1ccc(OC2CC2)c(Cl)c1)/C(=N/O)c1ccc(-c2ccc(F)cc2)cc1 [Compound 153, (E)-N-((1R,2R)-1-(3-chloro-4-cyclopropoxyphenyl)-1-hydroxy-3-(pyrrolidin-1-yl)propan-2-yl)-2-(4′-fluoro-[1,1′-biphenyl]-4-yl)-2-(hydroxyimino)acetamide]",
< 50,"O=C(N[C@H](CN1CCC1)[C@H](O)c1cc(F)c2c(c1)OCCO2)/C(=N/O)c1ccc(-c2ccc(F)cc2)cc1 [Compound 155, (E)-N-((1R,2R)-3-(azetidin-1-yl)-1-(8-fluoro-2,3-dihydrobenzo[b][1,4]dioxin-6-yl)-1-hydroxypropan-2-yl)-2-(4′-fluoro-[1,1′-biphenyl]-4-yl)-2-(hydroxyimino)acetamide]",
< 50,"O=C(N[C@H](CN1CCCC1)[C@H](O)c1cc(F)c2c(c1)OCCO2)C(=O)c1ccc2ccc(Cl)cc2c1 [Compound 156, 2-(7-chloronaphthalen-2-yl)-N-((1R,2R)-1-(8-fluoro-2,3-dihydrobenzo[b][1,4]dioxin-6-yl)-1-hydroxy-3-(pyrrolidin-1-yl)propan-2-yl)-2-oxoacetamide]",
< 50,"O=C(N[C@H](CN1CCC1)[C@H](O)c1cc(F)c2c(c1)OCCO2)C(F)(F)c1ccc(-c2ccc(F)cc2)cc1 [Compound 157, N-((1R,2R)-3-(azetidin-1-yl)-1-(8-fluoro-2,3-dihydrobenzo[b][1,4]dioxin-6-yl)-1-hydroxypropan-2-yl)-2,2-difluoro-2-(4′-fluoro-[1,1′-biphenyl]-4-yl)acetamide]",
< 50,"O=C(N[C@H](CN1CCCC1)[C@H](O)c1cc(F)c2c(c1)OCCO2)/C(=N/O)c1ccc2cc(Cl)ccc2c1 [Compound 158, (E)-2-(6-chloronaphthalen-2-yl)-N-((1R,2R)-1-(8-fluoro-2,3-dihydrobenzo[b][1,4]dioxin-6-yl)-1-hydroxy-3-(pyrrolidin-1-yl)propan-2-yl)-2-(hydroxyimino)acetamide]",
< 50,"O=C(N[C@H](CN1CCCC1)[C@H](O)c1ccc(OC2CC2)c(Cl)c1)C(F)(F)c1ccc(-c2ccc(F)cc2)cc1 [Compound 159, N-((1R,2R)-1-(3-chloro-4-cyclopropoxyphenyl)-1-hydroxy-3-(pyrrolidin-1-yl)propan-2-yl)-2,2-difluoro-2-(4′-fluoro-[1,1′-biphenyl]-4-yl)acetamide]",
< 50,"O=C(N[C@H](CN1CCCC1)[C@H](O)c1ccc2c(c1)OCCO2)C(F)(F)c1ccc(-c2ccc(F)cc2)cc1 [Compound 160, N-((1R,2R)-1-(2,3-dihydrobenzo[b][1,4]dioxin-6-yl)-1-hydroxy-3-(pyrrolidin-1-yl)propan-2-yl)-2,2-difluoro-2-(4′-fluoro-[1,1′-biphenyl]-4-yl)acetamide]",
< 50,"O=C(N[C@H](CN1CCC1)[C@H](O)c1ccc2c(c1)OCCO2)C(F)(F)c1ccc(-c2ccc(F)cc2)cc1 [Compound 161, N-((1R,2R)-3-(azetidin-1-yl)-1-(2,3-dihydrobenzo[b][1,4]dioxin-6-yl)-1-hydroxypropan-2-yl)-2,2-difluoro-2-(4′-fluoro-[1,1′-biphenyl]-4-yl)acetamide]",
